# Measurements: PubChem BioAssay (NCI)
#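 Briefly, cells in 96-well plates were exposed to five compound concentrations for 48 h, and endpoints were estimated by linear interpolation. GI50 is the concentration that inhibits growth by half. TGI: concentration producing complete growth inhibition.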 Where a SMILES comes first, the peptide text is derived from it. The star is where a group is joined. Cbz = O=C(OCc1ccccc1)*; CH2Cl = ClC*
# Test system: OVCAR-8 ovarian
# Test: NCI-60 cell line screen, 48 h
Structure (SMILES),GI50 [µM],TGI [µM]
Nc1nc(/C=C\c2ccc([N+](=O)[O-])s2)nc(N2CCCC2)n1,3.49,22.5
Clc1ccc2[nH]cc(-c3nnnn3-c3ccccc3)c2c1,29.5,> 93.3
CC(=O)OC12C=CC(=O)N1c1ccccc1C(=O)O2 (stereo not drawn),–,> 100
CCCC(=O)Nc1cc2c3c(c1)CCCN3CCC2,–,> 10
COc1cc(-c2cc(-c3cc4c([nH]c5ccccc54)c(-c4cc(OC)c(OC)c(OC)c4)n3)cc(-c3ccccc3)n2)cc(OC)c1OC,4.01,43.4
CS(=O)(=O)CCNCc1nc(-c2ccc3ncnc(Nc4ccc(OCc5cccc(C(F)(F)F)c5)cc4)c3c2)cs1,11.1,> 25
CC(C)CC(NC(=O)OCc1ccccc1)C(=O)NC(Cc1ccccc1)C(=O)CCl (stereo not drawn) (Cbz-Leu-Phe-CH2Cl; configuration not given here),–,5.11
CCOC(=O)C(Cc1ccc(CCCC(=O)NCCC(=O)Nc2ccc3nc(C)sc3c2)cc1)C(=O)OCC,20.1,42.1
NCCNc1c2c(c(NCCN)c3[nH]ccc13)C(=O)c1ccccc1C2=O,0.151,0.612
Cc1c2c(C#N)nccc2c(C)c2c1c1ccccc1n2Cc1ccccc1,–,> 100
COc1ccc2c(c1)C(=O)c1c-2c(N2CCN(C(=O)CNCCNCCO)CC2)nc2ccccc12,10.2,33.8

# Test system: OVCAR-3 ovarian
# Test: NCI-60 cell line screen, 48 h
Structure (SMILES),GI50 [µM],TGI [µM]
CN(C)CC[PH+](c1ccccc1)c1ccccc1.CN(C)CC[PH+](c1ccccc1)c1ccccc1.[Cl-].[Pd+2],> 100,> 100
O=C(O)Cc1cc(Cl)ccc1O,–,> 100
O=C(c1ccccc1)c1cc2ccccc2o1,59.6,> 100
C=C(C)[C@@H]1CC[C@]2(C)[C@H](CC=C3[C@@H]4CC(C)(C)CC[C@]4(C(N)=O)CC[C@]32C)[C@@]1(C)CCC#N,3.49,> 100
COc1c(OC[C@H](O)CN2CCOCC2)ccc2c3n(c(=NC(=O)c4cccnc4C)nc12)CCN3,0.432,> 50
COc1ccc(-c2nc3ccc(-c4nc5ccc(N6CCN(c7ccccc7)CC6)cc5[nH]4)cc3[nH]2)cc1OC,2.04,3.64
O=C(N[C@@H](c1ccc(Cl)c(Cl)c1)C1CNC1)c1ccc2cnccc2c1,1.56,13.2
CO/N=C(\COc1ccc2c(c1)oc(=O)c1cc(OC)ccc12)c1ccc(OC)cc1,> 100,> 100
Nc1nc(/C=C\c2ccc([N+](=O)[O-])s2)nc(N2CCCC2)n1,3.49,12.2
Clc1ccc2[nH]cc(-c3nnnn3-c3ccccc3)c2c1,6.66,> 42.5
CC(=O)OC12C=CC(=O)N1c1ccccc1C(=O)O2 (stereo not drawn),–,> 100
CCCC(=O)Nc1cc2c3c(c1)CCCN3CCC2,–,> 10
COc1cc(-c2cc(-c3cc4c([nH]c5ccccc54)c(-c4cc(OC)c(OC)c(OC)c4)n3)cc(-c3ccccc3)n2)cc(OC)c1OC,3.9,17.3
CC(C)Oc1ccc2cc(-c3nn(CC4CCNCC4)c4ncnc(N)c34)ccc2c1,12.5,25
CS(=O)(=O)CCNCc1nc(-c2ccc3ncnc(Nc4ccc(OCc5cccc(C(F)(F)F)c5)cc4)c3c2)cs1,> 17.3,> 25
CC(C)CC(NC(=O)OCc1ccccc1)C(=O)NC(Cc1ccccc1)C(=O)CCl (stereo not drawn) (Cbz-Leu-Phe-CH2Cl; configuration not given here),–,8.26
CCOC(=O)C(Cc1ccc(CCCC(=O)NCCC(=O)Nc2ccc3nc(C)sc3c2)cc1)C(=O)OCC,54.9,> 100
NCCNc1c2c(c(NCCN)c3[nH]ccc13)C(=O)c1ccccc1C2=O,< 0.0489,0.251
Cc1c2c(C#N)nccc2c(C)c2c1c1ccccc1n2Cc1ccccc1,–,> 100
COc1ccc2c(c1)C(=O)c1c-2c(N2CCN(C(=O)CNCCNCCO)CC2)nc2ccccc12,11.7,31.2

# Test system: HOP-92 NSCLC
# Test: NCI-60 cell line screen, 48 h
Structure (SMILES),GI50 [µM],TGI [µM]
CN(C)CC[PH+](c1ccccc1)c1ccccc1.CN(C)CC[PH+](c1ccccc1)c1ccccc1.[Cl-].[Pd+2],> 100,> 100
O=C(O)Cc1cc(Cl)ccc1O,–,> 100
O=C(c1ccccc1)c1cc2ccccc2o1,26.7,> 100
C=C(C)[C@@H]1CC[C@]2(C)[C@H](CC=C3[C@@H]4CC(C)(C)CC[C@]4(C(N)=O)CC[C@]32C)[C@@]1(C)CCC#N,2.37,6.62
COc1c(OC[C@H](O)CN2CCOCC2)ccc2c3n(c(=NC(=O)c4cccnc4C)nc12)CCN3,0.0637,10.1
COc1ccc(-c2nc3ccc(-c4nc5ccc(N6CCN(c7ccccc7)CC6)cc5[nH]4)cc3[nH]2)cc1OC,1.28,4
O=C(N[C@@H](c1ccc(Cl)c(Cl)c1)C1CNC1)c1ccc2cnccc2c1,0.0444,3.34
CO/N=C(\COc1ccc2c(c1)oc(=O)c1cc(OC)ccc12)c1ccc(OC)cc1,> 100,> 100
Nc1nc(/C=C\c2ccc([N+](=O)[O-])s2)nc(N2CCCC2)n1,6.73,18.6
Clc1ccc2[nH]cc(-c3nnnn3-c3ccccc3)c2c1,27.5,> 100
CC(=O)OC12C=CC(=O)N1c1ccccc1C(=O)O2 (stereo not drawn),–,> 100
CCCC(=O)Nc1cc2c3c(c1)CCCN3CCC2,–,> 10
COc1cc(-c2cc(-c3cc4c([nH]c5ccccc54)c(-c4cc(OC)c(OC)c(OC)c4)n3)cc(-c3ccccc3)n2)cc(OC)c1OC,1.45,6.25
CC(C)Oc1ccc2cc(-c3nn(CC4CCNCC4)c4ncnc(N)c34)ccc2c1,6.37,20.8
CS(=O)(=O)CCNCc1nc(-c2ccc3ncnc(Nc4ccc(OCc5cccc(C(F)(F)F)c5)cc4)c3c2)cs1,3.68,15.8
CC(C)CC(NC(=O)OCc1ccccc1)C(=O)NC(Cc1ccccc1)C(=O)CCl (stereo not drawn) (Cbz-Leu-Phe-CH2Cl; configuration not given here),–,3.73
CCOC(=O)C(Cc1ccc(CCCC(=O)NCCC(=O)Nc2ccc3nc(C)sc3c2)cc1)C(=O)OCC,55.6,> 100
NCCNc1c2c(c(NCCN)c3[nH]ccc13)C(=O)c1ccccc1C2=O,0.427,4.21
Cc1c2c(C#N)nccc2c(C)c2c1c1ccccc1n2Cc1ccccc1,–,> 100
COc1ccc2c(c1)C(=O)c1c-2c(N2CCN(C(=O)CNCCNCCO)CC2)nc2ccccc12,2.47,9.68
